Where two headings read alike, the source gives them in different places.
Tests used:
Type in all cases: cell-based, human
HTT mRNA = assay: RT-qPCR splicing assay, HTT canonical (CJ) and alternative (AJ) junction mRNA; conditions: Homo sapiens; for AC50: read-out: HTT AJ (AC50, increase in AJ mRNA)
How it was run: (§1)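 24 h compound exposure of A673 or K562 cells at 37 °C, 10 uM top final concentration, 3-fold steps, DMSO ≤0.25%. Splice-isoform levels determined by qPCR on cDNA from lysates, run at least in duplicate; values expressed as RQ normalized to GAPDH, GUSB or PPIA and DMSO.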

MYB mRNA = assay: RT-qPCR splicing assay, MYB canonical (CJ) and alternative (AJ) junction mRNA; conditions: Homo sapiens; for AC50: read-out: MYB AJ (AC50, increase in AJ mRNA)
How it was run: as §1

SMN2 mRNA = assay: RT-qPCR splicing assay panel, SMN2 canonical junction (CJ) mRNA; conditions: Homo sapiens
How it was run: as §1

Target C mRNA = assay: RT-qPCR splicing assay panel, Target C canonical junction (CJ) mRNA; conditions: Homo sapiens
How it was run: as §1

[1] = 24 h, Table 3A, A673 or K562 cells, 24 h treatment
[2] = 24 h, Table 3A, A673 or K562 cells, 24 h treatment, read-out: HTT CJ (IC50, decrease in CJ mRNA)
[3] = canonical junction (CJ) mRNA, RT-qPCR panel, Table 4A, read-out: HTT, decrease in CJ mRNA levels, IC50
[4] = 24 h, Table 3A, A673 or K562 cells, 24 h treatment, read-out: MYB CJ (IC50, decrease in CJ mRNA)
[5] = canonical junction (CJ) mRNA, RT-qPCR panel, Table 4A, read-out: MYB, decrease in CJ mRNA levels, IC50
[6] = canonical junction (CJ) mRNA, RT-qPCR panel, Table 4A, read-out: SMN2, decrease in CJ mRNA levels, IC50
[7] = canonical junction (CJ) mRNA, RT-qPCR panel, Table 4A, read-out: Target C, decrease in CJ mRNA levels, IC50
[8] = 24 h, Table 3B, A673 or K562 cells, 24 h treatment

IC50 (HTT mRNA; [2])	IC50 (HTT mRNA; [3])	IC50 (MYB mRNA; [4])	IC50 (MYB mRNA; [5])	IC50 (SMN2 mRNA; [6])	IC50 (Target C mRNA; [7])	IC50 (HTT mRNA; 24 h, Table 3B, A673 or K562 cells, 24 h treatment, read-out: HTT CJ (IC50, decrease in CJ mRNA))	IC50 (HTT mRNA; Table 4B, gene panel, read-out: HTT (IC50, decrease in CJ mRNA levels))	IC50 (MYB mRNA; 24 h, Table 3B, A673 or K562 cells, 24 h treatment, read-out: MYB CJ (IC50, decrease in CJ mRNA))	IC50 (MYB mRNA; Table 4B, gene panel, read-out: MYB (IC50, decrease in CJ mRNA levels))	IC50 (SMN2 mRNA; Table 4B, gene panel, read-out: SMN2 (IC50, decrease in CJ mRNA levels))	IC50 (Target C mRNA; Table 4B, gene panel, read-out: Target C (IC50, decrease in CJ mRNA levels))	Compound	AC50 (HTT mRNA; [1])	AC50 (MYB mRNA; [1])	AC50 (HTT mRNA; [8])	AC50 (MYB mRNA; [8])
< 100 nM	< 100 nM	100 to 1000 nM	100 to 1000 nM	< 100 nM	100 to 1000 nM	–	–	–	–	–	–	COc1nc(-c2cnc(N3CCC(NC(C)(C)C)C3)nn2)ccc1-c1cnc(C)s1 (stereo not drawn) [Compound 422]	< 100 nM	100 to 1000 nM	–	–
100 to 1000 nM	100 to 1000 nM	1000 to 10000 nM	1000 to 10000 nM	100 to 1000 nM	1000 to 10000 nM	–	–	–	–	–	–	COc1cc(-c2ccc(-c3ccc(N4CC[C@H](N[C@H]5C[C@H](F)C5)C4)nn3)c(O)c2)ncn1 [Compound 426]	100 to 1000 nM	1000 to 10000 nM	–	–
–	–	–	–	–	–	100 to 1000 nM	100 to 1000 nM	1000 to 10000 nM	1000 to 10000 nM	100 to 1000 nM	1000 to 10000 nM	Cc1nc2cc(O)c(-c3cnc(N4CC[C@@H](N(C)C(C)(C)C)C4)nn3)cc2o1 [Compound 856]	–	–	1000 to 10000 nM	1000 to 10000 nM
100 to 1000 nM	100 to 1000 nM	100 to 1000 nM	100 to 1000 nM	< 100 nM	100 to 1000 nM	–	–	–	–	–	–	COc1cc(-c2ccc(-c3ccc(N4CC[C@@H](NC5CCC5)C4)nn3)c(O)c2)ncn1 [Compound 364, 2-{6-[(3R)-3-(cyclobutylamino)pyrrolidin-1-yl]pyridazin-3-yl}-5-(6-methoxypyrimidin-4-yl)phenol]	100 to 1000 nM	1000 to 10000 nM	–	–
1000 to 10000 nM	1000 to 10000 nM	1000 to 10000 nM	1000 to 10000 nM	100 to 1000 nM	1000 to 10000 nM	–	–	–	–	–	–	Oc1cc(-c2ccnnc2)ccc1-c1ccc(N2CCC(NC3CCC3)C2)nn1 (stereo not drawn) [Compound 388]	1000 to 10000 nM	1000 to 10000 nM	–	–
100 to 1000 nM	100 to 1000 nM	1000 to 10000 nM	1000 to 10000 nM	100 to 1000 nM	1000 to 10000 nM	–	–	–	–	–	–	Cc1nnc(-c2cc(O)c(-c3ccc(N4CC[C@@H](NCC5CC5)C4)nn3)cc2F)s1 [Compound 402]	100 to 1000 nM	1000 to 10000 nM	–	–
< 100 nM	< 100 nM	< 100 nM	< 100 nM	< 100 nM	< 100 nM	–	–	–	–	–	–	Cc1ncc(-c2cc(O)c(-c3ccc(N4CC[C@H](N[C@H](C)C5CC5)C4)nn3)cc2F)s1 [Compound 372]	< 100 nM	< 100 nM	–	–
1000 to 10000 nM	1000 to 10000 nM	1000 to 10000 nM	1000 to 10000 nM	100 to 1000 nM	> 10000 nM	–	–	–	–	–	–	Oc1cc(-n2cnnc2)ccc1-c1ccc(N2CCC(NC3CCC3)C2)nn1 (stereo not drawn) [Compound 345]	1000 to 10000 nM	1000 to 10000 nM	–	–

Further lines, the molecule ahead of its results:

Compound	IC50 (HTT mRNA; [2])	IC50 (HTT mRNA; [3])	IC50 (MYB mRNA; [4])	IC50 (MYB mRNA; [5])	IC50 (SMN2 mRNA; [6])	IC50 (Target C mRNA; [7])	IC50 (HTT mRNA; 24 h, Table 3B, A673 or K562 cells, 24 h treatment, read-out: HTT CJ (IC50, decrease in CJ mRNA))	IC50 (HTT mRNA; Table 4B, gene panel, read-out: HTT (IC50, decrease in CJ mRNA levels))	IC50 (MYB mRNA; 24 h, Table 3B, A673 or K562 cells, 24 h treatment, read-out: MYB CJ (IC50, decrease in CJ mRNA))	IC50 (MYB mRNA; Table 4B, gene panel, read-out: MYB (IC50, decrease in CJ mRNA levels))	IC50 (SMN2 mRNA; Table 4B, gene panel, read-out: SMN2 (IC50, decrease in CJ mRNA levels))	IC50 (Target C mRNA; Table 4B, gene panel, read-out: Target C (IC50, decrease in CJ mRNA levels))	AC50 (HTT mRNA; [1])	AC50 (MYB mRNA; [1])	AC50 (HTT mRNA; [8])	AC50 (MYB mRNA; [8])
COc1cc(-c2cc(O)c(-c3ccc(N4CC[C@@H](NC(C)(C)C)C4)nn3)cc2F)cnn1 [Compound 212, 2-{6-[(3R)-3-(tert-butylamino)pyrrolidin-1-yl]pyridazin-3-yl}-4-fluoro-5-(6-methoxypyridazin-4-yl)phenol]	< 100 nM	< 100 nM	< 100 nM	< 100 nM	< 100 nM	< 100 nM	–	–	–	–	–	–	< 100 nM	< 100 nM	–	–
COc1cc(-c2ccc(-c3ccc(N4CCC(C)(NC5CCC5)C4)nn3)c(O)c2)cnn1 (stereo not drawn) [Compound 275]	< 100 nM	< 100 nM	100 to 1000 nM	100 to 1000 nM	< 100 nM	< 100 nM	–	–	–	–	–	–	< 100 nM	100 to 1000 nM	–	–
COc1cc(-c2cc(O)c(-c3ccc(N4CCC(N[C@H]5C[C@H](F)C5)C4)nn3)cc2F)cnn1 (stereo partly drawn) [Compound 274]	< 100 nM	< 100 nM	100 to 1000 nM	100 to 1000 nM	< 100 nM	100 to 1000 nM	–	–	–	–	–	–	100 to 1000 nM	100 to 1000 nM	–	–
COc1cc(-c2ccc(-c3ccc(OC4CC(C)(C)NC(C)(C)C4)nn3)c(O)c2)cnn1 [Compound 271]	< 100 nM	< 100 nM	< 100 nM	< 100 nM	< 100 nM	< 100 nM	–	–	–	–	–	–	< 100 nM	100 to 1000 nM	–	–
Oc1cc(-c2cn[nH]c2)c(F)cc1-c1ccc(N2CC[C@H](NC3CCC3)C2)nn1 [Compound 113, 2-{6-[(3S)-3-(cyclobutylamino)pyrrolidin-1-yl]pyridazin-3-yl}-4-fluoro-5-(1H-pyrazol-4-yl)phenol]	< 100 nM	< 100 nM	< 100 nM	< 100 nM	< 100 nM	< 100 nM	–	–	–	–	–	–	< 100 nM	< 100 nM	–	–
CC1(NC2CCN(c3ccc(-c4ccc(-c5cn[nH]c5)cc4O)nn3)C2)CC1 (stereo not drawn) [Compound 107, 2-(6-{3-[(1-methylcyclopropyl)amino]pyrrolidin-1-yl}pyridazin-3-yl)-5-(1H-pyrazol-4-yl)phenol]	< 100 nM	< 100 nM	< 100 nM	< 100 nM	< 100 nM	< 100 nM	–	–	–	–	–	–	< 100 nM	< 100 nM	–	–
COc1cc(-c2ccc(-c3ccc(N4CC[C@@H](NC5(C)CCC5)C4)nn3)c(O)c2)cnn1 [Compound 287, (R)-5-(6-methoxypyridazin-4-yl)-2-(6-(3-((1-methylcyclobutyl)amino)pyrrolidin-1-yl)pyridazin-3-yl)phenol]	< 100 nM	< 100 nM	< 100 nM	< 100 nM	< 100 nM	< 100 nM	–	–	–	–	–	–	< 100 nM	< 100 nM	–	–
Cc1ncc(-c2cc(O)c(-c3ccc(N4CC[C@H](NC5CCC5)C4)nn3)cc2F)o1 [Compound 229, 2-{6-[(3S)-3-(cyclobutylamino)pyrrolidin-1-yl]pyridazin-3-yl}-4-fluoro-5-(2-methyl-1,3-oxazol-5-yl) phenol]	< 100 nM	< 100 nM	100 to 1000 nM	100 to 1000 nM	< 100 nM	100 to 1000 nM	–	–	–	–	–	–	< 100 nM	100 to 1000 nM	–	–
Cn1cc2nc(-c3ccc(-c4ccc(N5CCC(NC6CCC6)C5)nn4)c(O)c3)ccc2n1 (stereo not drawn) [Compound 319]	100 to 1000 nM	100 to 1000 nM	1000 to 10000 nM	1000 to 10000 nM	100 to 1000 nM	1000 to 10000 nM	–	–	–	–	–	–	100 to 1000 nM	100 to 1000 nM	–	–
Cc1ncc(-c2cc(O)c(-c3ccc(N4CC[C@H](N(C)C(C)(C)C)C4)nn3)cc2F)s1 [Compound 322, 2-{6-[(3S)-3-[tert-butyl(methyl)amino]pyrrolidin-1-yl]pyridazin-3-yl}-4-fluoro-5-(2-methyl-1,3-thiazol-5-yl) phenol]	< 100 nM	< 100 nM	< 100 nM	< 100 nM	< 100 nM	< 100 nM	–	–	–	–	–	–	< 100 nM	< 100 nM	–	–
